Ten molecules from ChEMBL document CHEMBL1201862, “PubChem BioAssay data set” (2004) can be followed below.

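Where inhibition never reached the appropriate level, the endpoint shown equals the highest concentration tested. Otherwise, values were interpolated linearly from a five-concentration, 48-hour dose response in 96-well plates. At the GI50, growth is halved.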 Active and inactive are the calls of the source. Rule as the data show it: active = GI50 up to about 1.1 µM and inactive = higher. Some results are limits rather than exact numbers.

Test in all cases: NCI-60 cell line screen, 48 h
Assay [1] deals with OVCAR-3.
In assay [2] the test system is NCI/ADR-RES.
Assay [3] has as its system NCI-H226.
For assay [4], the system named is EKVX.
Assay [5] relates to SN12C.
For assay [6], the system named is SF-268.
Assay [7] relates to SK-MEL-2.
For assay [8], the system named is 786-0.
Assay [9] concerns HOP-62.
The test system of assay [10] is SK-MEL-5.
Assay [11] has as its system SR.
Assay [12] relates to NCI-H23.
Assay [13] has as its system U-251.
The test system of assay [14] is MDA-MB-231.
The subject of assay [15] is NCI-H460.
In assay [16] the test system is UO-31.
The test system of assay [17] is KM12.
Assay [18] concerns PC-3.
Assay [19] concerns SW-620.
The test system of assay [20] is HCT-15.

Turning to `COc1ccc(C(c2ccc(OC)cc2)N2C(=O)CCC2C(=O)O)cc1` (centres undefined), the GI50 in assay [1], in [2], in [3], in [4], in assay [5] and in assay [6] was > 100 µM (inactive) each time. The GI50 in assay [7], in [8], in [9], in [10], in assay [11] and in assay [12] was > 100 µM (inactive) throughout. The GI50 in assay [13], in assay [14], in assay [15], in [16], in assay [17] and in assay [18] was > 100 µM (inactive) throughout. The GI50 was > 100 µM (inactive) in [19] and more than 100 µM in assay [20].

Turning to `Cc1cc2ccccc2n1CC(=O)NCC(C)C`, the GI50 in assay [1], in assay [2], in assay [3], in assay [4], in assay [5] and in [6] was > 100 µM (inactive) in each case. In addition, the GI50 in assay [7], in [8], in [9], in assay [10], in [11] and in [12] was > 100 µM (inactive) each time. Besides, the GI50 in [13], in assay [14], in assay [15], in [16], in [17] and in [18] was > 100 µM (inactive) each time. Also, the values for the GI50 in [19] and in assay [20] were > 100 µM (inactive) and more than 100 µM, respectively.

`CCOC(=O)C1(C(=O)OCC)C[C@H]2CON=C2[C@@H]1c1ccc(C(F)(F)F)cc1`: the GI50 is 40.1 µM (inactive) in assay [1]; 32.6 µM (inactive) in assay [2]; 34.9 µM (inactive) in assay [3]; 29.5 µM (inactive) in [4]; 94.8 µM (inactive) in [5]; > 100 µM (inactive) in [6]. Further, the GI50 was 62.2 µM (inactive) in assay [7]; 46.9 µM (inactive) in assay [8]; 21.9 µM (inactive) in assay [9]; 30.6 µM (inactive) in assay [10]; 35.4 µM (inactive) in [11]; 58.7 µM (inactive) in [12]. The GI50 in [13] was 64.7 µM (inactive); in assay [14], > 100 µM (inactive); in [15], 42.9 µM (inactive); in assay [16], 14.2 µM (inactive); in assay [17], 82.6 µM (inactive); in assay [18] it was 42.9 µM (inactive). Besides, the figures for the GI50 in [19] and in [20] were 68.1 µM (inactive) and 38.6 µM, respectively.

`CC1(c2cccs2)CC(c2cccs2)=C(C#N)C(=C(C#N)C#N)N1` (centres undefined): the GI50 in assay [1] is 16.3 µM (inactive); in assay [2] it was 21.3 µM (inactive); in assay [3], 22.3 µM (inactive); in assay [4], 18.1 µM (inactive); in assay [5] it was 18.7 µM (inactive); in assay [6] it was 18.2 µM (inactive). Also, the GI50 in [7] is 17.8 µM (inactive); in [8], 17.3 µM (inactive); in [9], 19.9 µM (inactive); in assay [10] it was 14.6 µM (inactive); in [11] it was 18 µM (inactive); in assay [12], 19.4 µM (inactive). Moreover, the GI50 in assay [13] is 15.8 µM (inactive); in [14], 23.5 µM (inactive); in [15], 20.2 µM (inactive); in assay [16], 18.9 µM (inactive); in assay [17] it was 17.1 µM (inactive); in [18], 15.4 µM (inactive). The GI50 is 11.4 µM (inactive) in assay [19] and 16.4 µM in assay [20].

As for `O=c1[nH]c2cccc([N+](=O)[O-])c2c(=O)n1-c1ccc(Cl)cc1`, the GI50 in assay [1] was 10.8 µM (inactive); in assay [2], 10.4 µM (inactive); in assay [3] it was 13.6 µM (inactive); in [4], 10.8 µM (inactive); in assay [5], 14 µM (inactive); in assay [6] it was 12.2 µM (inactive). Moreover, the GI50 in assay [7] is 9.86 µM (inactive); in [8], 19.8 µM (inactive); in assay [9], 18.6 µM (inactive); in assay [10], 9.71 µM (inactive); in [11], 15 µM (inactive); in [12], 20.3 µM (inactive). The GI50 in assay [13] is 16.4 µM (inactive); in assay [14] it was 15.8 µM (inactive); in assay [15], 4.4 µM (inactive); in assay [17] it was 15.2 µM (inactive); in assay [18] it was 16.6 µM (inactive); in assay [19] it was 10.4 µM (inactive). In assay [20], the GI50 was 12.1 µM.

Regarding `COC(=O)[C@]12CSC[C@H]1C[C@H](c1ccc(N(C)C)cc1)N2`, the GI50 in [1] was > 100 µM (inactive); in assay [2], > 100 µM (inactive); in [3] it was > 100 µM (inactive); in assay [4], > 73.3 µM (inactive); in assay [5], > 100 µM (inactive); in assay [6] it was > 100 µM (inactive). The GI50 in [7], in assay [8], in assay [9], in assay [10], in assay [11] and in assay [12] was > 100 µM (inactive) in each case. Besides, the GI50 in assay [13], in assay [14], in assay [15], in assay [16], in assay [17] and in assay [18] was > 100 µM (inactive) each time. Also, the GI50 in assay [19] is > 100 µM (inactive); in [20] it was more than 100 µM.

On to `O=C(O)CCC(N/N=N/c1ccc(-c2nc3ccccc3[nH]2)cc1)C(=O)O` (centres undefined), for which the GI50 in assay [1] was 30.3 µM (inactive); in [2] it was 27.8 µM (inactive); in [3] it was > 100 µM (inactive); in [4], > 100 µM (inactive); in assay [5] it was 60.4 µM (inactive); in assay [7], 56.6 µM (inactive). In addition, the GI50 was 52.1 µM (inactive) in [8]; 48.8 µM (inactive) in [9]; 66.5 µM (inactive) in assay [10]; 29.7 µM (inactive) in assay [11]; 71.3 µM (inactive) in assay [12]; 43.7 µM (inactive) in assay [13]. The GI50 in [14] was > 100 µM (inactive); in [15], 31.8 µM (inactive); in assay [16], 13.6 µM (inactive); in assay [17], 37.4 µM (inactive); in [18], 81.8 µM (inactive); in assay [19], > 100 µM (inactive). In assay [20], the GI50 is 34 µM.

As for `OC[C@H]1O[C@@H](n2cnc3c(S)ncnc32)[C@H](O)[C@@H]1O` [THIOINOSINE], the GI50 in assay [1] was 1160 µM (inactive); in assay [2] it was 2040 µM (inactive); in assay [3] it was > 2500 µM (inactive); in assay [4], > 2500 µM (inactive); in assay [5], > 2500 µM (inactive); in assay [6], > 2500 µM (inactive). The GI50 in [7] is 1490 µM (inactive); in assay [8], > 2500 µM (inactive); in assay [9] it was 2120 µM (inactive); in assay [10] it was > 2500 µM (inactive); in assay [11] it was 1890 µM (inactive); in assay [12], > 2500 µM (inactive). Besides, the GI50 in assay [13] was > 2450 µM (inactive); in assay [14] it was > 2500 µM (inactive); in [15], 2140 µM (inactive); in [17], > 2500 µM (inactive); in assay [18], > 2500 µM (inactive); in [19], > 2500 µM (inactive). In addition, the GI50 in assay [20] is more than 2500 µM.

For the molecule `CC1NOC(NS(=O)(=O)c2ccc(/N=N/c3c(O)c(C(=O)O)cc4ccccc34)cc2)C1C` (centres undefined), the GI50 in [1], in assay [2], in [3], in assay [4], in assay [6] and in [7] was > 100 µM (inactive) each time. Besides, the GI50 in [8], in assay [9], in assay [10], in assay [11], in [13] and in assay [14] was > 100 µM (inactive) each time. Further, the GI50 is > 100 µM (inactive) in [15]; 55 µM (inactive) in assay [16]; 57.8 µM (inactive) in [17]; > 100 µM (inactive) in assay [18]; > 100 µM (inactive) in assay [19]; more than 100 µM in [20].

On to `COc1cc2oc(=O)ccc2cc1CC=C(C)C` [SUBEROSIN], for which the GI50 in [1] is 59.7 µM (inactive); in [2] it was 22.9 µM (inactive); in [3], 29.6 µM (inactive); in assay [4], 5.81 µM (inactive); in assay [5], 47.6 µM (inactive); in [6] it was 47.8 µM (inactive). For the same molecule, the GI50 in [7] is 45.3 µM (inactive); in assay [8], > 10 µM (inactive); in assay [9] it was > 100 µM (inactive); in [10], 37.3 µM (inactive); in assay [11] it was 21 µM (inactive); in assay [12] it was 52.4 µM (inactive). For the same molecule, the GI50 in assay [13] was 43.3 µM (inactive); in [14] it was 50.2 µM (inactive); in assay [15] it was 50.8 µM (inactive); in assay [16], 21.9 µM (inactive); in assay [17], 36.9 µM (inactive); in [18], 83 µM (inactive). Further, the GI50 in assay [19] is 41.3 µM (inactive).
